Tests used:
NUAK1(h) enzyme = molecular target: T1, NUAK1(h) enzyme (Homo sapiens, UniProt O60285); assay: In vitro NUAK1 enzymatic assay (Eurofins Discovery, [γ-33P]-ATP filter assay); type: biochemical; conditions: 45 μM ATP, 40 min, room temperature; read-out: IC50, inhibitory effect on NUAK1 enzyme activity
T1 construct: purchased Eurofins Discovery
T1 sequence (O60285 1-661): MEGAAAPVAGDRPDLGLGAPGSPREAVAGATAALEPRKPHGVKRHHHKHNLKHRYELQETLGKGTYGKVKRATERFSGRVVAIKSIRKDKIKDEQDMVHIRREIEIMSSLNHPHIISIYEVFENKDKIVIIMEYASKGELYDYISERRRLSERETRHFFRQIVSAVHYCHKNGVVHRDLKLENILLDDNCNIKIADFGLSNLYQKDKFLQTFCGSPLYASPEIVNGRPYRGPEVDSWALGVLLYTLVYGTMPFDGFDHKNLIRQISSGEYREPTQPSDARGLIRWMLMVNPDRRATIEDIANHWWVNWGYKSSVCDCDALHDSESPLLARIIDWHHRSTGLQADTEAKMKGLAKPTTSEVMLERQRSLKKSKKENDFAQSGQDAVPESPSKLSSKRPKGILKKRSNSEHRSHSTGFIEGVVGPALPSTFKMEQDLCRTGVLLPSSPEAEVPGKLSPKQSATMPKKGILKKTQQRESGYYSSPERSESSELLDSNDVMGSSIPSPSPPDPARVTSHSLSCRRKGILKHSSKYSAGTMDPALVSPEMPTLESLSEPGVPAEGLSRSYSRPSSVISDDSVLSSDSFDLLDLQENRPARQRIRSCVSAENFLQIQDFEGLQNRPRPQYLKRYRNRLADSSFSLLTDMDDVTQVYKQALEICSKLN
Protocol: In Vitro Assay to Determine the Inhibitory Effect of Compounds in the Patent on NUAK1 Enzymatic Activity
The in vitro NUAK1 enzymatic assay was carried out at Eurofins Discovery to evaluate the inhibitory effect of the compounds presented in the invention. The assay protocol is as follow: the compound to be tested was mixed with NUAK1(h) enzyme and 300 μM […] substrate in 8 mM MOPS (pH 7.0) buffer containing 0.2 mM EDTA and incubated at room temperature. A Mg/ATP mixture containing 10 mM magnesium acetate and 45 μM [y-33P]-ATP was added to start the reaction. After incubation for 40 min at room temperature, the reaction was terminated by adding 0.5% phosphoric acid. Then, 10 μL of the reaction mix was spotted onto a P30 filter paper followed with four times of wash with 0.425% phosphoric acid solution (4 min each time), and one time wash with methanol. The filter paper was air-dried and counted in a liquid scintillation counter. The values obtained were plotted against the drug concentration and the IC50 was calculated.
Table 1 summarizes the inhibitory effect (IC50) of compounds tested on the NUAK1 enzyme activity in the present invention. ++++ indicates IC50≤10 nM; […]; ++ indicates 100 nM<IC50≤1 μM; + indicates IC50>1 μM.

NUAK2(h) enzyme = molecular target: T2, NUAK2(h) enzyme (Homo sapiens, UniProt Q9H093); assay: In vitro NUAK2 enzymatic assay (Eurofins Discovery, [γ-33P]-ATP filter assay); type: biochemical; conditions: 45 μM ATP, 40 min, room temperature; read-out: IC50, inhibitory effect on NUAK2 enzyme activity
T2 construct: purchased Eurofins Discovery
T2 sequence (Q9H093 1-628): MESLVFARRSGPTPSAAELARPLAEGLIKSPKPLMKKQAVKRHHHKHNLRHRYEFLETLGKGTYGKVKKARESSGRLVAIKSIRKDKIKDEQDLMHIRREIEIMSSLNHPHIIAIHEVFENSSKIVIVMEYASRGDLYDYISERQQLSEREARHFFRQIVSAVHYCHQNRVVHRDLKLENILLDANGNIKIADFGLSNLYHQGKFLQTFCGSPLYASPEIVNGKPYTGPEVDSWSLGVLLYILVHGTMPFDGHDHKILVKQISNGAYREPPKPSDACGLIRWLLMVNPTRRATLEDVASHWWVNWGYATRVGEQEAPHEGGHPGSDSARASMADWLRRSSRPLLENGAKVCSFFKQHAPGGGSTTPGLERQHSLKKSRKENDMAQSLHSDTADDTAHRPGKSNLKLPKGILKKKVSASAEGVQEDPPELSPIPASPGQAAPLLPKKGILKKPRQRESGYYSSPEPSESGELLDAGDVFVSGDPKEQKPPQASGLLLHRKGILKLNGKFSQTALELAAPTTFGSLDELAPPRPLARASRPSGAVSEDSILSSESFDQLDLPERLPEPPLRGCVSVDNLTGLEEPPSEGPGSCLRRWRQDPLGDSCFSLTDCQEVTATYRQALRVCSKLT
Protocol: In Vitro Assay to Determine the Inhibitory Effect of Compounds in the Patent on NUAK2 Enzymatic Activity
The in vitro NUAK2 enzymatic assay was carried out at Eurofins Discovery to evaluate the inhibitory effect of the compounds presented in the invention. The assay protocol is as follow: the compound to be tested was mixed with NUAK2(h) enzyme and 300 […] substrate in 8 mM MOPS (pH 7.0) buffer containing 0.2 mM EDTA. A Mg/ATP mixture containing 10 mM magnesium acetate and 45 μM [γ-33P]-ATP was added to start the reaction. After incubation for 40 min at room temperature, the reaction was terminated by adding 0.5% phosphoric acid. Then 10 μL of the reaction mix was spotted onto a P30 filter paper. The filter paper was washed four times with 0.425% phosphoric acid with 4 min for each wash, and one time with methanol. The filter paper was air-dried and counted in a liquid scintillation counter. The values obtained were plotted against the drug concentration and the IC50 was calculated.
Table 1 summarizes the inhibitory effect (IC50) of compounds on the NUAK2 enzyme activity in the present invention. ++++ indicates IC50≤10 nM; +++ indicates 10 nM<IC50≤100 nM; ++ indicates 100 nM<IC50≤1 μM; + indicates IC50>1 μM.

| SMILES | IC50 (NUAK1(h) enzyme) | IC50 (NUAK2(h) enzyme) |
| --- | --- | --- |
| CN1CCN(c2ccc(Nc3ncc4cnc(=O)n(C5CCCC5)c4n3)c(OC(F)(F)F)c2)CC1 [Example 9, 1-cyclopentyl-7-((4-(4-methylpiperazin-1-yl)-2-(trifluoromethoxy)phenyl)amino)pyrimido[4,5-d]pyrimidin-2(1H)-one] | > 1000 nM | > 1000 nM |
| COc1cc(N2CCN(C)CC2)ccc1Nc1ncc2cnc(=O)n(C3CCC3)c2n1 [Example 14, 1-cyclobutyl-7-((2-methoxy-4-(4-methylpiperazin-1-yl)phenyl)amino)pyrimido[4,5-d]pyrimidin-2(1H)-one] | 100 to 1000 nM | 100 to 1000 nM |
| COc1cc(N2CCN(C)CC2)ccc1Nc1ncc2c(n1)N(C1CCCC1)C(=O)N(C)C2 [Example 4, 1-cyclopentyl-7-((2-methoxy-4-(4-methylpiperazin-1-yl)phenyl)amino)-3-methyl-3,4-dihydropyrimido[4,5-d]pyrimidin-2(1H)-one] | 100 to 1000 nM | 100 to 1000 nM |
| CN1CCN(c2ccc(Nc3ncc4cnc(=O)n(C5CCCC5)c4n3)c(Cl)c2)CC1 [Example 11, 7-((2-chloro-4-(4-methylpiperazin-1-yl)phenyl)amino)-1-cyclopentylpyrimido[4,5-d]pyrimidin-2(1H)-one] | 100 to 1000 nM | 100 to 1000 nM |
| COc1cc(N2CCN(C)CC2)ccc1Nc1ncc2c(n1)N(C1CC1)C(=O)NC2 [Example 3] | 100 to 1000 nM | > 1000 nM |
| CC(C)Oc1cc(N2CCN(C)CC2)ccc1Nc1ncc2cnc(=O)n(C3CCCC3)c2n1 [Example 8, 1-cyclopentyl-7-((2-isopropoxy-4-(4-methylpiperazin-1-yl)phenyl)amino)pyrimido[4,5-d]pyrimidin-2(1H)-one] | > 1000 nM | > 1000 nM |
| CN1CCN(c2ccc(Nc3ncc4cnc(=O)n(C5CCCC5)c4n3)c(Br)c2)CC1 [Example 12, 7-((2-bromo-4-(4-methylpiperazin-1-yl)phenyl)amino)-1-cyclopentylpyrimido[4,5-d]pyrimidin-2(1H)-one] | 100 to 1000 nM | 100 to 1000 nM |
| COc1cc(N2CCN(C)CC2)ccc1Nc1ncc2cnc(=O)n(C3CC3)c2n1 [Example 15, 1-cyclopropyl-7-((2-methoxy-4-(4-methylpiperazin-1-yl)phenyl)amino)pyrimido[4,5-d]pyrimidin-2(1H)-one] | 100 to 1000 nM | > 1000 nM |
| CCOc1cc(N2CCN(C)CC2)ccc1Nc1ncc2cnc(=O)n(C3CCCC3)c2n1 [Example 7, 1-cyclopentyl-7-((2-ethoxy-4-(4-methylpiperazin-1-yl)phenyl)amino)pyrimido[4,5-d]pyrimidin-2(1H)-one] | > 1000 nM | 100 to 1000 nM |
| COc1cc(N2CCN(C)CC2)ccc1Nc1nc(C)c2cnc(=O)n(C3CCCC3)c2n1 [Example 13, 1-cyclopentyl-7-((2-methoxy-4-(4-methylpiperazin-1-yl)phenyl)amino)-5-methylpyrimido[4,5-d]pyrimidin-2(1H)-one] | > 1000 nM | > 1000 nM |

Further lines, results first:

| IC50 (NUAK1(h) enzyme) | IC50 (NUAK2(h) enzyme) | SMILES |
| --- | --- | --- |
| 10 to 100 nM | 100 to 1000 nM | CCC(=O)Nc1cccc(Oc2nc(Nc3ccc(N4CCN(C)CC4)cc3OC)ncc2I)c1 [HTH-02-006, reference compound] |
| 100 to 1000 nM | > 1000 nM | COc1cc(N2CCN(C)CC2)ccc1Nc1ncc2c(n1)N(C1CC1)C(=O)CC2 [Example 30] |
| > 1000 nM | 100 to 1000 nM | COc1cc(N2CCNCC2)ccc1Nc1ncc2c(C)c(C(C)=O)c(=O)n(C3CCCC3)c2n1 [Example 37, 6-acetyl-8-cyclopentyl-2-((2-methoxy-4-(piperazin-1-yl)phenyl)amino)-5-methylpyrido[2,3-d]pyrimidin-7(8H)-one] |
| 10 to 100 nM | 10 to 100 nM | COc1cc(N2CCN(C)CC2)ccc1Nc1ncc2cncc(C3=CCCC3)c2n1 [Example 35, 8-(cyclopent-1-en-1-yl)-N-(2-methoxy-4-(4-methylpiperazin-1-yl)phenyl)pyrido[4,3-d]pyrimidin-2-amine] |
| 100 to 1000 nM | 100 to 1000 nM | COc1cc(N2CCN(C)CC2)ccc1Nc1ncc2c(n1)N(C1CCCC1)C(=O)CO2 [Example 31, 8-cyclopentyl-2-((2-methoxy-4-(4-methylpiperazin-1-yl)phenyl)amino)-6H-pyrimido[5,4-b][1,4]oxazin-7(8H)-one] |
| 10 to 100 nM | 10 to 100 nM | COc1cc(N2CCN(C)CC2)ccc1Nc1ncc2cncc(C3CCCC3)c2n1 [Example 34, 8-cyclopentyl-N-(2-methoxy-4-(4-methylpiperazin-1-yl)phenyl)pyrido[4,3-d]pyrimidin-2-amine] |
| > 1000 nM | 100 to 1000 nM | COc1cc(N2CCN(C)CC2)ccc1Nc1ncc2c(C)c(C(C)=O)c(=O)n(C3CCCC3)c2n1 [Example 36, 6-acetyl-8-cyclopentyl-2-((2-methoxy-4-(4-methylpiperazin-1-yl)phenyl)amino)-5-methylpyrido[2,3-d]pyrimidin-7(8H)-one] |
| 100 to 1000 nM | 100 to 1000 nM | COc1cc(N2CCN(C)CC2)ccc1Nc1ncc2c(n1)N(C1CCOCC1)C(=O)NC2 [Example 33, 7-((2-methoxy-4-(4-methylpiperazin-1-yl)phenyl)amino)-1-(tetrahydro-2H-pyran-4-yl)-3,4-dihydropyrimido[4,5-d]pyrimidin-2(1H)-one] |
| > 1000 nM | 100 to 1000 nM | COc1cc(N2CCN(C)CC2)ccc1Nc1ncc2cnc(=O)n(C3CCOCC3)c2n1 [Example 16, 7-((2-methoxy-4-(4-methylpiperazin-1-yl)phenyl)amino)-1-(tetrahydro-2H-pyran-4-yl)pyrimido[4,5-d]pyrimidin-2(1H)-one] |
| > 1000 nM | 100 to 1000 nM | COc1cc(N2CCN(C)CC2)ccc1Nc1cc2c(cn1)cc(C#N)c(=O)n2C1CCCC1 [Example 25, 1-cyclopentyl-7-((2-methoxy-4-(4-methylpiperazin-1-yl)phenyl)amino)-2-oxo-1,2-dihydro-1,6-naphthyridine-3-carbonitrile] |

Source: patent publication US20240124464A1, “SUBSTITUTED FUSED BICYCLIC COMPOUND AS KINASE INHIBITOR AND USE THEREOF” (IMPACT THERAPEUTICS (SHANGHAI), INC, priority 2020, published 2024)
